Where “and” joins values, the source holds several entries; their conditions need not be identical. Identical values can stand only once. Like-named read-outs stand apart in the source and are kept apart here.

Data set [1] relates to leukotrienes C4, D4 and E4 and SRS-A. Kind of data set: antagonism of leukotrienes C4, D4 and E4 and of SRS-A. The settings on record: versus closely related compounds within the scope of EP No. 104,885. The text has this: The compounds of Formula I are active as antagonists of SRS-A and of leukotriene. The activity of the compounds of Formula I can be detected and evaluated by methods known in the art. See, for example, Kadin, U.S. Pat. No. 4,296,129.

The subject of data set [2] is antigen (egg albumin)-induced continuous dyspnea in inbred asthmatic rats. The data set is described as follows: Asthmatic Rat Assay: duration of continuous dyspnea after aerosolized antigen challenge in sensitized inbred asthmatic rats. It counts as in vivo. The note with it: for ED50: Rattus norvegicus, po, read-out: ED50 p.o. (dose which would inhibit the duration of symptoms by 50%). The text has this:
Sensitized inbred "asthmatic rats" challenged with aerosolized antigen respond with symptoms of continuous dyspnea which is partly mediated by serotonin. […] These rats differ from normal rats in that they have non-specific bronchial hyperreactivity to a number of bronchoconstrictor agents (Brunet et al, J. Immunol., 131, 434 (1983)).
Pretreatment with drugs is used to measure the decrease of the duration of continuous dyspnea and, at higher doses, to eliminate the response (piechuta et a1, Immunology, 38, 385 (1979)).
(1) Animals: Male and female inbred asthmatic rats were used between 10-12 weeks of age. Their weights ranged from 190-250 gm (females) and 260-400 gm (males). Rats were matched by sex and littermates between the various treatment groups. Animals were starved overnight. Water was supplied ad lib.
(2) Materials: Egg albumin (EA), grade V, crystallized and lyophilized was obtained from Sigma Chemical Co., St. Louis. Aluminum hydroxide was obtained from the Reheis Chemical Company, Chicago. Methysergide Bimaleate was supplied by Sandoz Ltd., Basel, Switzerland. Serotonin creatinine sulfate was obtained from Calbiochem-Behring Corp., La Jolla, Calif.
(3) Apparatus: The challenge and subsequent respiratory recordings were carried out in a clear
plastic box with internal dimensions 10×6×4 inches. The top of the box was removable; in use, it was held firmly in place by four clamps and an airtight seal was maintained by a soft rubber gasket. […] A Fleisch No. 0000 pneumotachograph was inserted into one end of the box and coupled to a Grass volumetric pressure transducer (PT5-A) which was then connected to a Beckman Type R Dynograph through appropriate couplers. While aerosolizing the antigen, the outlets were open and the pneumotachograph was isolated from the chamber. The outlets were closed and the pneumotachograph and the chamber were connected during the recordings of the respiratory patterns. For challenge, 2 mL of a 3% solution of antigen in saline was placed into each nebulizer and the aerosol was generated with air from a small Potter diaphragm pump operating at 10 psi and a flow of 8 liters/min.
(4) Procedure: Rats were sensitized by injecting (s.c.) 1 mL of suspension containing 1 mg albumin (EA) and 200 mg aluminum hydroxide in saline. They were used between days 12 and 24 post sensitization. Rats were exposed to aerosol of 3% EA in saline for exactly 1 minute, then their respiratory profiles were recorded for a further 30 minutes. The duration of continuous dyspnea was measured from the respiratory recordings.
Compounds were generally administered either orally 1, 2, 4 or 6 hours prior to challenge or intravenously 2 minutes prior to challenge. Dose volume for oral treatments was 10 mL/kg and for i.v. treatments 1 mL/kg. Compounds were dissolved in distilled water. Methysergide bimaleate was dissolved in saline and administered intravenously at dose of 3 μg/kg 5 minutes before antigen challenge.
The sensitivity of various drug treatments were determined in terms of the decrease in duration of dyspnea in comparison with a group of vehicle treated controls. Usually, a compound was evaluated at a series of doses and an ED50 value was determined. This was defined as the dose (mg/kg) which would inhibit the duration of symptoms by 50%.

The test system is the same in data set [3]. The settings on record: 3 μg/kg i.v. before challenge; cited from earlier work.
Where [4] appears, read: 1.5 mg/kg p.o., 1 hour before challenge.

On to `CCCc1c(O)c(C(C)=O)cc(F)c1OCCCS(=O)(=O)c1ccc([C@H](O)[C@@H](C)CC(=O)O)cc1` (relative stereo) [Compound I, (4R*,3S*)-4-[4-(3-(4-acetyl-6-fluoro-3-hydroxy-2-propylphenoxy)propyl-sulfonyl)phenyl]-4-hydroxy-3-methylbutanoic acid], for which the “potency as antagonists of leukotrienes C4, D4 and E4 and of SRS-A” value in data set [1] was “unexpectedly much more potent”. The “Inhib. of Dyspnea” value in data set [2] (0.05 mg/kg p.o., 2 hours before challenge) is 40%; in data set [2] (0.15 mg/kg p.o., 2 hours before challenge) it was 48%; in data set [2] (0.5 mg/kg p.o., 2 hours before challenge) it was 57%; in data set [2] (setting [4]), 55%; in data set [2] (1.5 mg/kg p.o., 2 hours before challenge) it was 59% and 65%; in data set [2] (1.5 mg/kg p.o., 4 hours before challenge), 65%. In data set [2] (1.5 mg/kg p.o., 6 hours before challenge), the “Inhib. of Dyspnea” value was found to be 63%. In addition, in data set [2] (2 hrs before challenge), the ED50 came out at 0.21 mg/kg. The “absorption by the oral route” value in data set [2] (judged from activity p.o. in the Asthmatic Rat Assay) is “good absorption by the oral route”. Besides, the duration of action entry in data set [2] (p.o., in words) is on record as “satisfactory duration of action”. Moreover, the potency result in data set [2] (p.o., in words) was “high potency”. In addition, the “activity compared with the closely related reference compounds” value in data set [2] (versus Ex. 77 and Ex. 93 of EP 104,885, p.o.) is “significantly more active than the closely related reference compounds”.
Turning to `CCCc1c(OCCCS(=O)(=O)c2ccc([C@H](O)[C@@H](C)CC(=O)O)cc2)ccc(C(C)=O)c1O` (relative stereo) [Ex. 77, (4R*,3S*)-4-[4-(3-(4-acetyl-3-hydroxy-2-propylphenoxy)propylsulfonyl)phenyl]-4-hydroxy-3-methybutanoic acid, reference compound], the “Inhib. of Dyspnea” value amounted to 33% in data set [2] (0.15 mg/kg p.o., 1 hour before challenge); 29% in data set [2] (0.5 mg/kg p.o., 1 hour before challenge); 29% in data set [2] (setting [4]); 44% in data set [2] (5.0 mg/kg p.o., 1 hour before challenge). Further, the ED50 in data set [2] (1 hr before challenge) is more than 5 mg/kg.
On to `CCCc1c(O)c(C(C)=O)cc(F)c1OCCCSc1ccc([C@H](O)[C@@H](C)CC(=O)O)cc1` (relative stereo) [Ex. 93, (4R*,3S*)-4-[4-(3-(4-acetyl-6-fluoro-3-hydroxy-2-propylphenoxy)propylthio)phenyl]-4-hydroxy-3-methylbutanoic acid, reference compound], for which the “Inhib. of Dyspnea” value in data set [2] (setting [4]) is on record as 26%.
As to `CC[C@@H](CO)NC(=O)[C@@H]1C=C2c3cccc4c3c(cn4C)C[C@H]2N(C)C1` [methysergide], in data set [3], the “blocking of the serotonin component of continuous dyspnea” value was “completely blocked”.

The values are drawn from US4906658A, “Fluoro-sulfones” (Merck Frosst Canada, Inc., priority 1987, dated 1990).
